Laboratory results as given in ChEMBL document CHEMBL5244278, “Bioisosteres of the Phenyl Ring: Recent Strategic Applications in Lead Optimization and Drug Design” (J Med Chem, 2021).
≈ marks a conversion by molar mass, not a printed value.

Assays:
[1] = test system: Hepatitis C virus; assay: microbe, parasite or virus in culture; settings: GT1a-genotype
[2] = test system: Hepatitis C virus; assay: microbe, parasite or virus in culture; settings: GT1b-genotype
[3] = Solubility of compound at pH 6.8 by RapidFire mass spectrometry; type: physicochemical; settings: buffer
[4] = Solubility of the compound in FaSSIF at pH 6.8 by RapidFire mass spectrometry; type: ADME; settings: simulated gi fluid
[5] = Clearance in rat liver microsomes; type: ADME, Microsome
[6] = molecular target: Tyrosine-protein kinase ABL1 (Homo sapiens, UniProt P00519); assay: Inhibition of ABL1 (unknown origin)
Tyrosine-protein kinase ABL1, sequence (P00519 whole entry): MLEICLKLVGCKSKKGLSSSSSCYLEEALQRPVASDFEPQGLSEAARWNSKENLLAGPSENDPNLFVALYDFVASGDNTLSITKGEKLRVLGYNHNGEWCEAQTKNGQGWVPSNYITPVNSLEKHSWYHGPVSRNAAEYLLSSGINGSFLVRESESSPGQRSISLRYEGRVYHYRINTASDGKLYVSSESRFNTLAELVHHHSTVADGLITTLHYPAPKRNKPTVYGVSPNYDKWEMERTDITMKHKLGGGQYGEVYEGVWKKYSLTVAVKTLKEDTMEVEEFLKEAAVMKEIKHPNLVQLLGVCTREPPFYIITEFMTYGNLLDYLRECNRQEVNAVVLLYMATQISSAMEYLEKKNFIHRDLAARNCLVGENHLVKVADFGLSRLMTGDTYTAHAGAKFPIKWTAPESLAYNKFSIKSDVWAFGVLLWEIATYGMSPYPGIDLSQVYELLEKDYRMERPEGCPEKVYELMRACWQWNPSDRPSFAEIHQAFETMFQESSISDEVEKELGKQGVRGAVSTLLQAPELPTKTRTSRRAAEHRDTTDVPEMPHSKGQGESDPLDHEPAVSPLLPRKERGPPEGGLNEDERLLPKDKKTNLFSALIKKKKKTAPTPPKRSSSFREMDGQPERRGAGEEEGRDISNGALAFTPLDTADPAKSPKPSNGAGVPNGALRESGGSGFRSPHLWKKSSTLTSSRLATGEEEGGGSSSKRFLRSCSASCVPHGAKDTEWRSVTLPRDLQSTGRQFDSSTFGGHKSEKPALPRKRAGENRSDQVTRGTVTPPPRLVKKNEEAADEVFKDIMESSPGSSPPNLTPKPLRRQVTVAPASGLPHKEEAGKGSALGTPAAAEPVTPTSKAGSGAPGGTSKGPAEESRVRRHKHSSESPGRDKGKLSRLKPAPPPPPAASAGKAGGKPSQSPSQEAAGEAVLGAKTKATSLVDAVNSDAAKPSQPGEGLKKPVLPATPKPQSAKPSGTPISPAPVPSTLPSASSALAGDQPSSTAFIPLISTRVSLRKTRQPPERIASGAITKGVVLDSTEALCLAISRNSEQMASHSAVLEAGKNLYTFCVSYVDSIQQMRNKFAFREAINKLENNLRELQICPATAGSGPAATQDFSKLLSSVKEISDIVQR

[7] = physchem; settings: buffer, pH 7.4
[8] = Inhibition of LFA-1/ICAM-1 (unknown origin) interaction; parameters: species or system Homo sapiens
[9] = molecular target: CYP3A4 (Homo sapiens, UniProt P08684); assay: (§1) Inhibition of CYP3A4 (unknown origin); type: ADME
CYP3A4, sequence (P08684 whole entry): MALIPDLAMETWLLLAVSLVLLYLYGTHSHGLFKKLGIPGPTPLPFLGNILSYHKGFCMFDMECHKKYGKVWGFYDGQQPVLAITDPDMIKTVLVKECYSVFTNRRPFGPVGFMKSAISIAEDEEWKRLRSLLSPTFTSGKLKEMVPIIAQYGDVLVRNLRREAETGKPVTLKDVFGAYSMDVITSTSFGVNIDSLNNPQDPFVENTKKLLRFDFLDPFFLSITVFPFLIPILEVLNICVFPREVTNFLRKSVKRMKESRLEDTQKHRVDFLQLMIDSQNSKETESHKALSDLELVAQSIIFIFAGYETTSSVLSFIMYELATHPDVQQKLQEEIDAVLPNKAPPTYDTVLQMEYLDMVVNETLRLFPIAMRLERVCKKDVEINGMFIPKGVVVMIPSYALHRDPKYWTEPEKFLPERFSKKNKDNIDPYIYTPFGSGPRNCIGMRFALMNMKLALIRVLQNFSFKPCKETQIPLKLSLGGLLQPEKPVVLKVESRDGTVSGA

[10] = molecular target: Voltage-gated inwardly rectifying potassium channel KCNH2 (Homo sapiens, UniProt Q12809); assay: (§2) Inhibition of hERG channel; type: toxicity
Voltage-gated inwardly rectifying potassium channel KCNH2, sequence (Q12809 whole entry): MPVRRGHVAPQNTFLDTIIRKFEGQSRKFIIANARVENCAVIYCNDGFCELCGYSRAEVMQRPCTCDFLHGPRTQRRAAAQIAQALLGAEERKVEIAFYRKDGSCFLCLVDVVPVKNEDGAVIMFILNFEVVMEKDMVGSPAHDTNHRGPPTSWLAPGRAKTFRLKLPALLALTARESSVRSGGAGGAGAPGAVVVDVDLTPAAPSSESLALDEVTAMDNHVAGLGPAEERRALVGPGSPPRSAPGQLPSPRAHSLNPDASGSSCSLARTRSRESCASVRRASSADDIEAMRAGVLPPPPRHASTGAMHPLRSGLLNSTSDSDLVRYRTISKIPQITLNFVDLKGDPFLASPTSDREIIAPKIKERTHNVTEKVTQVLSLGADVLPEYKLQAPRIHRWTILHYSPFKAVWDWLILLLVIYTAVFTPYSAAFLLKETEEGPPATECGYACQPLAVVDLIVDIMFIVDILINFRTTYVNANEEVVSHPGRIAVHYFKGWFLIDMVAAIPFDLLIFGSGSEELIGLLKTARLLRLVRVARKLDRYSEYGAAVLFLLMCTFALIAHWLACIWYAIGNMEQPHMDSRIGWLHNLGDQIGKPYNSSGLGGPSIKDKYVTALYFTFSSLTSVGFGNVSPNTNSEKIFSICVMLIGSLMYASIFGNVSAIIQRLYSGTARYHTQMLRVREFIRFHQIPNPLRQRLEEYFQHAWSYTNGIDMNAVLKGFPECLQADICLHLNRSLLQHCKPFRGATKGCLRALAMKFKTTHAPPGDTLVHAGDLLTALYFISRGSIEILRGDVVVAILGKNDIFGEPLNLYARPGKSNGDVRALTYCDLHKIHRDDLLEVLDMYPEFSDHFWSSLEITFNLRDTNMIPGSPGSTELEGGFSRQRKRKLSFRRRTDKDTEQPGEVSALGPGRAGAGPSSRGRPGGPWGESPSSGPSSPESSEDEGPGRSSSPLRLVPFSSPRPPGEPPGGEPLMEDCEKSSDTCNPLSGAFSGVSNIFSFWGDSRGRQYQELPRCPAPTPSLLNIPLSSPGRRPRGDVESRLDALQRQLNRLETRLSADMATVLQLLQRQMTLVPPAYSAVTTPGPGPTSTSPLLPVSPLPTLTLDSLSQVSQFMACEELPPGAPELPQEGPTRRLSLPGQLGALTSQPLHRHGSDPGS

[11] = Dissociation constant, pKa of the compound; type: physicochemical
[12] = test system: MDA-MB-231; assay: Antiproliferative activity against human MDA-MB-231 cells assessed as cell growth inhibition at 30 uM relative to control; type: functional
[13] = test system: MIA PaCa-2; assay: Antiproliferative activity against human MIA PaCa-2 cells assessed as cell growth inhibition at 30 uM relative to control; type: functional
[14] = test system: SU-DHL10; assay: Antiproliferative activity against human SU-DHL-10 cells assessed as cell growth inhibition at 30 uM relative to control; type: functional
[15] = Lipophilicity, logD of the compound at pH 7.4; type: physicochemical; settings: buffer
[16] = Aqueous solubility of compound at pH 7.4; type: physicochemical
[17] = Half life in rat hepatocytes; type: ADME, cell-based, Hepatocyte
[18] = Lipophilicity, logD of the compound in 1-octanol and phosphate buffer by tandem mass spectrometer analysis; type: physicochemical; settings: 1-octanol/phosphate buffer
[19] = molecular target: hERG (KCNH2) (Homo sapiens, UniProt Q12809); assay: as §2; type: toxicity; settings: human
hERG (KCNH2), sequence (Q12809 whole entry): as above

[20] = Solubility of the compound; type: physicochemical
[21] = test system: Hepatitis C virus; assay: Antiviral activity against HCV GT3a-genotype assessed as inhibition of viral replication; type: functional, organism-based, Hepacivirus hominis
[22] = test system: Hepatitis C virus; assay: Antiviral activity against HCV GT2a-genotype assessed as inhibition of viral replication; type: functional, organism-based, Hepacivirus hominis
[23] = test system: Hepatitis C virus; assay: Antiviral activity against HCV GT4a-genotype assessed as inhibition of viral replication; type: functional, organism-based, Hepacivirus hominis
[24] = test system: Trypanosoma cruzi; assay: Antitrypanosomal activity against Trypanosoma cruzi trypomastigotes infected in mouse 3T3 cells assessed as reduction in parasite growth; type: functional, organism-based; settings: NIH3T3
[25] = molecular target: Cytochrome P450 3A4 (Homo sapiens, UniProt P08684); assay: as §1; type: ADME
Cytochrome P450 3A4, sequence (P08684 whole entry): as the sequence (P08684 whole entry) above

[26] = Metabolic stability in human liver microsomes assessed as parent compound remaining; type: ADME, Microsome
[27] = Inhibition of MAPK (unknown origin); parameters: species or system Homo sapiens
[28] = Inhibition of human rhinovirus 3C protease; parameters: species or system Human rhinovirus sp.
[29] = test system: Human rhinovirus sp.; assay: Inhibition of human rhinovirus 3C protease assessed as kobs/[I]
[30] = Half life in human plasma; type: ADME, cell-free
[31] = Aqueous solubility of compound; type: physicochemical
[32] = in vitro; settings: human, liver microsomes
[33] = in vitro; settings: human, Caco-2

In the case of COC(=O)N[C@@H](C(=O)N1CCC[C@@H]1c1ncc(-c2cc3sc(-c4cnc([C@H]5CCCN5C(=O)[C@H](NC(=O)OC)C(C)C)[nH]4)cc3s2)[nH]1)C(C)C, the EC50 [1] is reported as 0.01 µM and the EC50 [2] is reported as less than 0.001 µM.
COc1ccccc1N1CCN(CCCCNC(=O)c2ccc(B3C=CC=CN3)cc2)CC1 gave a solubility [3] of 0.046 µM (≈ 20.4 ng/mL), a solubility [4] of 0.22 µM (≈ 97.8 ng/mL) and a CLhep predicted [5] of 3.18 L/h/kg.
In the case of Cc1ccc(NC(=O)[C@@H]2C[C@H]2CN2CCN(C)CC2)cc1Nc1nccc(-c2cccnc2)n1, the IC50 [6] is reported as greater than 1 µM and the solubility [7] is reported as 3720 µM.
COC(=O)N[C@@H](C(=O)N1CCC[C@@H]1c1ncc(-c2ccc(-n3ccc4c(-c5cnc([C@H]6CCCN6C(=O)[C@H](NC(=O)OC)C(C)C)[nH]5)csc43)c(Cl)c2)[nH]1)C(C)C gave an EC50 [2] of less than 0.001 µM.
For O=C(/C=C/c1ccc(Sc2ccc(Cl)cc2Cl)c(Br)c1)NCCCN1CCCC1=O, the IC50 [8] was 0.65 µM.
With O=C(NCCS(=O)(=O)c1ccc(C(F)(F)F)cn1)c1ccc(-c2ccccc2)cc1 the solubility [3] was less than 0.004 µM, the solubility [4] was less than 0.004 µM and the CLhep predicted [5] was 2.34 L/h/kg. The IC50 [9] was greater than 20 µM and the IC50 [10] was greater than 30 µM.
With NC12CC(C1)C2 the pKa [11] was 11.
Cc1ccc(NC(=O)CCCCN2CCN(C)CC2)cc1Nc1nccc(-c2cccnc2)n1 showed an IC50 [6] greater than 1 µM and a solubility [7] of 356 µM.
In the case of Oc1ccc(/C=C/c2cc(O)cc(O)c2)cc1 [RESVERATROL], the inhibition at 30 µM [12] is reported as 20%, the inhibition at 30 µM [13] is reported as 30% and the inhibition at 30 µM [14] is reported as 46%. The logD [15] was 2.9, the solubility [16] was 19 µg/mL (≈ 83.2 µM) and the half-life [17] was less than 7.5 min.
O=C(Cc1ccc(-c2ccccc2)cc1)Nc1cc(C2CC2)[nH]n1 showed a solubility [3] of less than 0.004 µM, a solubility [4] of 0.006 µM (≈ 1.9 ng/mL) and a logD [18] of 4.4. It also gave a CLhep predicted [5] of 2.88 L/h/kg, an IC50 [9] greater than 20 µM and an IC50 [19] greater than 30 µM.
With CC(=O)Nc1nc2c(Oc3cc(N4CCN([C@H](C)c5ccc(F)cc5)CC4)ncn3)cccc2s1 the solubility [20] was greater than 200 µg/mL.
Molecule Cc1ccc(NC(=O)[C@H]2CC[C@H](CN3CCN(C)CC3)CC2)cc1Nc1nccc(-c2cccnc2)n1 has an IC50 [6] greater than 1 µM and a solubility [7] of 56 µM.
Work on COC(=O)N[C@@H](C(=O)N1CCC[C@@H]1c1ncc(-c2csc3c(-c4cnc([C@H]5CCCN5C(=O)[C@H](NC(=O)OC)C(C)C)[nH]4)csc23)[nH]1)C(C)C yielded an EC50 [21] of 0.0001 µM, an EC50 [22] of less than 0.0001 µM and an EC50 [23] of less than 0.0001 µM. It also gave an EC50 [1] of less than 0.0001 µM.
CC(=O)N1CCN(c2cc(-c3ccc(Sc4ccccc4C(C)C)c(C(F)(F)F)c3)ccn2)CC1 showed an IC50 [8] of 0.093 µM.
Molecule Oc1cc(O)cc(/C=C/C23CC(O)(C2)C3)c1 has an inhibition at 30 µM [12] of 22%, an inhibition at 30 µM [13] of 30% and an inhibition at 30 µM [14] of 41%. It also gave a logD [15] of 1.9, a solubility [16] of 619 µg/mL (≈ 2840 µM) and a half-life [17] of 24 min.
For O=C(Cn1ccnc1[N+](=O)[O-])NCc1ccccc1 [BENZNIDAZOLE], the EC50 [24] was 6.1 µM.
Work on O=C(NCCS(=O)(=O)c1ccc(C(F)(F)F)cn1)c1ccc(B2C=CC=CN2)cc1 yielded a solubility [3] of less than 0.004 µM, a solubility [4] of 0.006 µM (≈ 2.61 ng/mL) and a logD [18] of 3.5. The CLhep predicted [5] was 3.18 L/h/kg, the IC50 [25] was greater than 20 µM and the IC50 [10] was greater than 30 µM.
Work on NC12CCC(CC1)C2 yielded a pKa [11] of 11.
CN1CCN(c2ccc(Nc3cc(C4CC4)[nH]n3)nn2)CC1 showed a Stability [26] of 81%.
N#Cc1ccc(Br)cc1 showed a solubility [7] of 194 µg/mL.
Molecule Cc1ccc(NC(=O)[C@@H]2CC[C@H](CN3CCN(C)CC3)C2)cc1Nc1nccc(-c2cccnc2)n1 has an IC50 [6] greater than 1 µM and a solubility [7] of 885 µM.
Molecule COCCn1c(SC)nc(-c2ccc(F)cc2)c1-c1cccc(NC(=O)CCc2ccccc2OC)c1 has an IC50 [27] of 0.093 µM and a solubility [7] of 0.0255 µg/mL.
Molecule COC(=O)N[C@@H](C(=O)N1CCC[C@@H]1c1ncc(-c2cn3cc(-c4cnc([C@H]5CCCN5C(=O)[C@H](NC(=O)OC)C(C)C)[nH]4)sc3n2)[nH]1)C(C)C has an EC50 [2] of less than 0.001 µM.
CC(=O)Nc1nc2c(Oc3cc(N4CCN(CC(F)(F)F)CC4)ncn3)cccc2s1 gave a solubility [20] greater than 200 µg/mL.
With C#CC[C@@H](C(=O)N[C@H](/C=C/C(=O)OCC)C[C@@H]1CCNC1=O)n1cccc(NC(=O)c2cc(C)on2)c1=O [IMOCITRELVIR] the EC50 [28] was 0.058 µM, the Ratio [29] was 223000 M/s and the half-life [30] was 396 min. The solubility [31] was 377 µg/mL (≈ 720 µM), the remaining at 0.5 h [32] was 60% and the Papp A→B [33] was 60 nm/s.
Cc1ccc(NC(=O)[C@H]2C[C@@H]2CN2CCN(C)CC2)cc1Nc1nccc(-c2cccnc2)n1 showed an IC50 [6] greater than 1 µM.
Work on CC(=O)N1CCN(C(=O)/C=C/c2ccc(Sc3ccccc3C(C)C)c(C(F)(F)F)c2)CC1 yielded an IC50 [8] of 0.06 µM.
Molecule CC(=O)N1CCN(c2nc(-c3ccc(Sc4ccccc4C(C)C)c(C(F)(F)F)c3)cs2)CC1 has an IC50 [8] of 3 µM.
In the case of O=C(c1ccccc1-c1ccccc1)N1CCCCC1, the logD [15] is reported as 3.5 and the solubility [7] is reported as 397 µM.
